Key:
mCYP3A11 = experiment: ex vivo mCYP3A11 activity in mouse liver microsomes (nifedipine oxidation); conditions: daily oral 100 mg/kg body weight
Description: Phenacetin and nifedipine are substrates of CYP1A2 and CYP3A11, respectively. Both substrates are converted via the CYP enzyme to paracetamol and dehydronefedipine, respectively. The concentrations of paracetamol and dehydronefedipine were used to determine the activities of mCYP1A2 and mCYP3A11. The effects of atractylodin and β-eudesmol on mCYP1A2 and mCYP3A11 activities were, respectively, determined by measuring paracetamol (mCYP1A2-dependent metabolite) and dehydronifiedipine (mCYP3A11-dependent metabolite) concentrations.
(§1) Eight-week-old male ICR (Imprinting Control Region) mice weighing 35–40 g were used to investigate the modulatory effects of atractylodin and β-eudesmol on mCYP1A2 and mCYP3A11. The study protocol was approved by the Ethics Committee for Animal Research at Thammasat University (protocol number 016/2020). All animals were obtained from Nomura Siam International Co., Ltd. (Bangkok, Thailand). The animals were acclimatized for one week before the experiments. A total of 36 mice were allocated to three groups (i) control group (3 mice), (ii) atractylodin-treated group, and (iii) β-eudesmol-treated group. For atractylodin and β-eudesmol-treated groups, animals were fed with 100 mg/kg body weight of each compound for 1, 7, 14, and 21 (3 mice for each dose). Experiments were performed under the guidelines for the care and use of laboratory animals in a controlled environment of 12 h dark/light cycle, temperature 22 ± 2 °C, and relative humidity 30–70% at the Thammasat University Animal Center. Animals were observed daily for changes in signs and symptoms by a veterinarian. Mice were allowed access to the food pellets and water ad libitum.
Mouse liver samples were cut into small pieces, and the liver microsomes were prepared as described previously. The concentrations of proteins in the microsomes were determined using Pierce™ BCA Protein Assay Kit. mCYP1A2 and mCYP3A11 activities were evaluated based on phenacetin O-deethylation and nifedipine oxidation activities, respectively. The incubation mixture of 500 µL consisted of microsomes, substrate ([…]), and NADPH. […] The final organic solvent concentration in the incubation mixture was not higher than 1%. Each experiment was repeated three times (duplicated each). Determination of the concentrations of metabolites of mCYP1A2 (paracetamol) and mCYP3A11 (dehydronifedipine) in the reaction was performed using HPLC Agilent 1260 Infinity II with mobile gradient phase between methanol and distilled water at an initial ratio of 20:80 (v:v) and UV detection (240 nm). Calibration curves for both CYP450 activities were created over a concentration range of 1–50 µM. Oxidized nifedipine concentrations were determined using HPLC as follows: UV detection at 235 nm with an isocratic mobile phase consisting of methanol and distilled water (70:30, v:v). […] In each analytical batch, quality control (QC) samples were run in duplicate at low, medium, and high concentrations. Acceptance criteria were four out of six QC analyses falling within 100 ± 15% of the nominal values.

mCYP3A11 mRNA = experiment: ex vivo mCYP3A11 mRNA expression in mouse livers (real-time PCR); conditions: male ICR mice, daily oral 100 mg/kg body weight, vs control
Description: as §1
Total mRNA was extracted from mouse livers using Trizol according to the manufacturer’s instructions. The concentration of mRNA was quantified by a nanodrop spectrophotometer. The First-Strand cDNA Synthesis Kit was used to generate cDNA from RNA. The CFX96 Touch Real-Time PCR Detection System was used to determine the expressions of mCYP1A2, mCYP3A11, and β-actin genes using the iTaq Universal SYBR Green Supermix. The PCR condition and the delta-delta Ct calculation were according to the previously described article. All primers used in this study were synthesized by Gibthai Co. Ltd. (Bangkok, Thailand).

C/C=C/C#CC#C/C=C/c1ccco1 [Atractylodin]
Dehydronifedipine concentration (mCYP3A11 activity) (mCYP3A11; 1 day, control 6.70, 100 mg/kg): significant reduction
Dehydronifedipine concentration (mCYP3A11 activity) (mCYP3A11; 1 day, control 6.70, listed as Atactylodin, 100 mg/kg): 5.35 µM
Dehydronifedipine concentration (mCYP3A11 activity) (mCYP3A11; 7 days, control 6.90, 100 mg/kg): significant reduction
Dehydronifedipine concentration (mCYP3A11 activity) (mCYP3A11; 7 days, control 6.90, listed as Atactylodin, 100 mg/kg): 5.20 µM
Dehydronifedipine concentration (mCYP3A11 activity) (mCYP3A11; 14 days, control 7.55, 100 mg/kg): significant reduction
Dehydronifedipine concentration (mCYP3A11 activity) (mCYP3A11; 14 days, control 7.55, listed as Atactylodin, 100 mg/kg): 6.10 µM
Dehydronifedipine concentration (mCYP3A11 activity) (mCYP3A11; 21 days, control 7.75, 100 mg/kg): significant reduction
Dehydronifedipine concentration (mCYP3A11 activity) (mCYP3A11; 21 days, control 7.75, listed as Atactylodin, 100 mg/kg): 3.75 µM
Fold-changes of mCYP3A11 mRNA levels (mCYP3A11 mRNA; 1 day): 1.72 fold
Fold-changes of mCYP3A11 mRNA levels (mCYP3A11 mRNA; 7 days): 1.3 fold
Fold-changes of mCYP3A11 mRNA levels (mCYP3A11 mRNA; 14 days): 0.87 fold
Fold-changes of mCYP3A11 mRNA levels (mCYP3A11 mRNA; 21 days): 0.62 fold

C=C1CCC[C@]2(C)CC[C@@H](C(C)(C)O)C[C@@H]12 [β-Eudesmol]
Dehydronifedipine concentration (mCYP3A11 activity) (mCYP3A11; 1 day, control 6.70): 6.90 µM
Dehydronifedipine concentration (mCYP3A11 activity) (mCYP3A11; 7 days, control 6.90): 7.5 µM
Dehydronifedipine concentration (mCYP3A11 activity) (mCYP3A11; 14 days, control 7.55, listed as β-eudesmol, 100 mg/kg): significantly reduced
Dehydronifedipine concentration (mCYP3A11 activity) (mCYP3A11; 14 days, control 7.55, listed as β‐eudesmol, 100 mg/kg): 4.00 µM
Dehydronifedipine concentration (mCYP3A11 activity) (mCYP3A11; 21 days, control 7.75, listed as β-eudesmol, 100 mg/kg): significantly reduced
Dehydronifedipine concentration (mCYP3A11 activity) (mCYP3A11; 21 days, control 7.75, listed as β‐eudesmol, 100 mg/kg): 3.20 µM
Fold-changes of mCYP3A11 mRNA levels (mCYP3A11 mRNA; 1 day, 100 mg/kg): 2.18 fold
Fold-changes of mCYP3A11 mRNA levels (mCYP3A11 mRNA; 7 days, 100 mg/kg): 1.5 fold
Fold-changes of mCYP3A11 mRNA levels (mCYP3A11 mRNA; 7 days, listed as β‐eudesmol, 100 mg/kg): 1.50 fold
Fold-changes of mCYP3A11 mRNA levels (mCYP3A11 mRNA; 14 days): 0.96 fold
Fold-changes of mCYP3A11 mRNA levels (mCYP3A11 mRNA; 21 days): 0.78 fold
